# Results from US20030224021A1, “Methods of using epitope peptides of human pathogens” (Regents of the University of Minnesota, priority 1998, published 2003).
# Where no end group is shown, it is not given here.
# Experiments:
# PBMC = PBMC of 49 HLA heterogenous subjects challenged with DTX and TTX universal epitope peptides; format: cell-based, human; details: share of the 49 subjects whose PBMC responded
# Excerpt: PBMC of 49 randomly selected, HLA heterogenous human subjects were challenged with each of the identified DTX and TTX universal epitope peptides. Generally, the PBMCs of each subject recognized several universal epitopes and all but one recognized at least one of the peptides.
# anti-DTD CD4+ cell lines = experiment: Proliferation assay (3H-thymidine) with anti-DTD CD4+ cell lines challenged with individual synthetic DTX peptides; format: cell-based, human; details: seven subjects of different HLA class II haplotype; peptide 10 μg/ml
# Description: Propagation of CD4+ cell lines specific for DTD and proliferation assay. PBMC were suspended (1-2×10^6 cell/ml) in TCM containing 10 μg/ml DTD, and cultivated in T25 flasks (Costar, Cambridge, Mass.) for 1 week. The reactive lymphoblasts were isolated on Percoll gradients, expanded in TCM containing T-cell growth factor (TCGF, Lymphocult, Biotest Diagnostic, Dreieich, Germany, at a final concentration of IL-2 of 10 units/ml), and enriched in DTD-specific cells by weekly stimulations with the same amount of DTD plus irradiated (4,000 rads: 1 rad=0.01 Gy) autologous PBMC as APC. The response to DTD and PHA of the T cell lines obtained was tested weekly.
# Proliferation assays with CD4+ cell lines for DTD. Proliferation assays were carried out with CD4+ lines, using 2×10^4 cells/well, irradiated autologous PBMC (2×10^5 cells/well) as APC, and the Ags described above for CD4+ enriched PBMC. Basal growth rate (Blank) was determined from triplicate wells containing CD4+ cell lines cultivated without any stimulus. After one day, the cultured cells were pulsed for 16 hours with ^3H-thymidine, collected, and the ^3H-thymidine incorporation measured as described above for CD4+ enriched PBMC.
# Sequence segments of DTX recognized by anti-DTD T cell lines. The DTX epitopes recognized by the CD4+ cell lines were identified in proliferation assays using individual synthetic DTX-specific peptides. […] The consistency of the recognition was verified by repeating the test 1-2 weeks later.
Substance,positive response (1%) (PBMC) [%],recognition by anti-DTD CD4+ cell lines (anti-DTD CD4+ cell lines)
GVLLPTIPGKLDVNKSKTHI [431-450],70,recognized by all seven individuals
VDIGFAAYNFVESIINLFQVV [351-370],71,recognized by all seven individuals
PVFAGANYAAWAVNVAQVI [271-290],84,recognized by all seven individuals
VHHNTEEIVAQSIALSSLMV [321-340],76,recognized by all seven individuals
QGESGHDIKITAENTPLPIA [411-430],70,recognized by all seven individuals
Gln-Ser-Ile-Ala-Leu-Ser-Ser-Leu-Met-Val-Ala-Gln-Ala-Ile-Pro-leu-Val-Gly-Glu-Leu [331-350],80,recognized by all seven individuals
TDD: column head of Table 4 beside the TTD sequence segments; presumably tetanus toxoid,96,
